# Results: patent publication US20240077498A1, “METHOD OF DIAGNOSING AND TREATING NONALCOHOLIC FATTY LIVER DISEASE AND NONALCOHOLIC STEATOHEPATITIS” (Board of Supervisors of Louisiana State University and …, priority 2020, published 2024)
# Entries after “also recorded” stand apart in the source; their conditions may differ.
# Columns and labels:
# SLAMF 1 = assay: Palmitic acid treatment of human hepatocytes in culture, SLAMF1 protein by western blot and immunofluorescence; format: cell-based; details: for SLAMF1 level normalized to Tubulin, relative to control: western blot, n=3; for SLAMF 1 protein levels by immunofluorescence staining: palmitic acid vs vehicle
# Protocol: Hepatocytes were treated with two different doses of palmitic acid (0.4 and 0.8 mM). […] The 0.4 mM dose has a SLAMF1 level of 2.3 times the control level. The 0.8 mM dose has a SLAMF1 level of 5.8 times the control level. […] Representative immunofluorescence staining of hepatocytes treated with vehicle (left panel) or palmitic acid (right panel). Caveolin antibody (red, to label the membrane of the cells), SLAMF 1 antibody (green) and the nuclear marker DAPI (blue). Protein levels of SLAMF 1 are elevated in response to palmitic acid (right panel). The data represents n=4 samples per group. All samples were a courtesy of Pathology Department. All pictures were acquired on a Leica TCS SP5 Spectral Confocal Microscope equipped with a ×40 (oil) objective.
# HepG2 cells = assay: Palmitic acid lipotoxicity in HepG2 cells (MTT, lactate dehydrogenase, AnV cytometry, cleaved caspase 3 p17 western blot); format: cell-based, human; details: PA 24 h
# SLAMF1 = SLAMF1 expression in PA treated HepG2 cells (immunocytochemistry, Western blot, q-PCR, conditioned medium); format: cell-based, human; details: for SLAMF1 mRNA (q-PCR) / SLAMF1 protein (immunocytochemistry, Western blot): HepG2 cells, PA 24 h
# Source text: FIGS. 7A-7C show SLAMF1 increases in PA treated HepG2 cells.
# Non-alcoholic fatty liver disease (NAFLD) is one of the most common forms of chronic liver disease. NAFLD's initial phase involves hepatic steatosis (triglyceride accumulation in hepatocytes). NAFLD can rapidly progress to non-alcoholic steatohepatitis (NASH). NASH is characterized by increased oxidative stress, lipid peroxidation, inflammation, mitochondria dysfunction, and hepatocyte death and fibrosis. If untreated, NASH leads to cirrhosis, and in some cases, hepatocellular carcinoma. […] Therefore, it is critical to understand the mechanisms responsible for NAFLD progression to NASH to develop efficient therapies and find disease progression biomarkers. Signaling lymphocytic activation molecule 1 (SLAMF1) protein is a self-ligand receptor involved in regulating the immune response to viruses and cancer. In the present disclosure, the inventors discovered that hepatocytes from NASH liver samples from humans and mice express high levels of SLAMF1. To confirm these findings, the inventors used palmitic acid-treated HepG2 hepatocytes as an “in vitro” model of NASH. […] Based on the inventors' experimental results, SLAMF1 may be used as both a therapeutic and a diagnostic target (including soluble form) for NAFLD and NASH.
# Referring to FIGS. 6A-8E, the involvement of SLAMF1 in the progression of NASH was explored in human hepatocarcinoma cells HepG2.
smiles,measurement,setting,value
CCCCCCCCCCCCCCCC(=O)O [palmitic acid],"SLAMF1 level normalized to Tubulin, relative to control",SLAMF 1; 0.4 mM palmitic acid,2.3 times the control level
same,"SLAMF1 level normalized to Tubulin, relative to control",SLAMF 1; 0.8 mM palmitic acid,5.8 times the control level
same,SLAMF 1 protein levels,SLAMF 1; 0.4 and 0.8 mM palmitic acid,dose dependent increase
same,SLAMF 1 protein levels by immunofluorescence staining,SLAMF 1; n=4,significant increase in SLAMF1 levels
same,SLAMF 1 protein levels by immunofluorescence staining,"SLAMF 1; n=4, listed as Palmitic acid",elevated
same,"apoptosis (AnV by cytometry, cleaved caspase 3 p17 by western blot)",HepG2 cells,induced apoptosis
same,cell viability (MTT),HepG2 cells,reduces cell viability
same,cytotoxicity (Lactate dehydrogenase activity in conditioned medium),HepG2 cells,increases cytotoxicity
same,SLAMF1 mRNA (q-PCR),SLAMF1,significant increases
same,"SLAMF1 protein (immunocytochemistry, Western blot)",SLAMF1,significant increases
same,SLAMF1 mRNA (q-PCR),SLAMF1; listed as PA,increases
same,"SLAMF1 protein (immunocytochemistry, Western blot)",SLAMF1; listed as PA,increases SLAMF1 protein
same,SLAMF1 in culture/conditioned medium,SLAMF1; palmitic acid-treated hepatocytes,secrete SLAMF1 in the culture medium; also recorded: increases SLAMF1 both in cells and conditioned medium
